Reference: PubChem BioAssay AID330 (DTP/NCI, 2004)
Several values for one entry are separate records, joined by “and”; a condition that tells them apart may be missing. Identical values can stand only once. Inconclusive results and toxic doses are left out. How the source made its calls: active means survival T/C of 150% or more; inactive means T/C below 125% in these data.

Tested on: P388 leukemia ip, CD2F1 mice, survival T/C
Assay: NCI In Vivo Anticancer Drug Screen. Data for tumor model P388 Leukemia (intraperitoneal) in CD2F1 (CDF1) mice
Conditions: endpoint: median survival time, higher = longer survival
In short: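 Mice carrying the transplanted tumor received test compound or vehicle. Survival was recorded in each group, and the value is the treated-group measurement divided by that of the vehicle-treated control group.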

[1] = dose: 60.0 mg/kg/injection, schedule: Q01DX005 (ip), vehicle: saline with Tween-80
[2] = dose: 120.0 mg/kg/injection, schedule: Q01DX005 (ip), vehicle: saline with Tween-80

Measured: T/C

CCOc1ccccc1/C=N\NC(=O)C(=O)N/N=C\c1ccccc1OCC
inactive: dose: 1.56 mg/kg/injection, schedule: Q01DX009 (ip), vehicle: Klucel (hydroxypropylcellulose) (HPC) 98 % of control | dose: 3.12 mg/kg/injection, schedule: Q01DX009 (ip), vehicle: Klucel (hydroxypropylcellulose) (HPC) 94 % of control | dose: 6.25 mg/kg/injection, schedule: Q01DX009 (ip), vehicle: Klucel (hydroxypropylcellulose) (HPC) 86 % of control and 91 % of control | dose: 50.0 mg/kg/injection, schedule: Q01DX009 (ip), vehicle: Klucel (hydroxypropylcellulose) (HPC) 90 % of control | dose: 200.0 mg/kg/injection, schedule: Q01DX009 (ip), vehicle: Klucel (hydroxypropylcellulose) (HPC) 97 % of control

Cc1ccccc1-c1nc2c3ccccc3c3ccccc3c2[nH]1
inactive: dose: 50.0 mg/kg/injection, schedule: Q01DX005 (ip), vehicle: Klucel (hydroxypropylcellulose) (HPC) 103 % of control | dose: 100.0 mg/kg/injection, schedule: Q01DX005 (ip), vehicle: Klucel (hydroxypropylcellulose) (HPC) 96 % of control | dose: 200.0 mg/kg/injection, schedule: Q01DX005 (ip), vehicle: Klucel (hydroxypropylcellulose) (HPC) 100 % of control

COC(=O)C1(C2CCc3cc(OC)ccc3C2=O)NC(=S)NC(=O)C1C#N (stereo not given)
inactive: dose: 7.5 mg/kg/injection, schedule: Q01DX005 (ip), vehicle: saline with Tween-80 96 % of control | dose: 15.0 mg/kg/injection, schedule: Q01DX005 (ip), vehicle: saline with Tween-80 97 % of control | dose: 30.0 mg/kg/injection, schedule: Q01DX005 (ip), vehicle: saline with Tween-80 93 % of control

Cc1ncc(CO)c(C2NCCS2)c1O (stereo not given)
inactive: [1] 100 % of control | [2] 107 % of control | dose: 240.0 mg/kg/injection, schedule: Q01DX005 (ip), vehicle: saline with Tween-80 107 % of control

C1CCC2[N-]CC3CCCCC3[N-]CC3CCCCC3[N-]CC3CCCCC3[N-]CC2C1.[Ni+2].[O-][Cl+3]([O-])([O-])O (stereo not given)
inactive: dose: 6.25 mg/kg/injection, schedule: Q01DX009 (ip), vehicle: saline 96 % of control

CCCCCC(C[N+]1(C)CCOCC1)C(=O)/C=C/c1ccccc1 (stereo not given)
inactive: dose: 12.5 mg/kg/injection, schedule: Q01DX009 (ip), vehicle: saline with Tween-80 96 % of control | dose: 12.5 mg/kg/injection, schedule: Q01DX009 (ip), vehicle: saline 108 % of control | dose: 25.0 mg/kg/injection, schedule: Q01DX009 (ip), vehicle: saline with Tween-80 108 % of control | dose: 25.0 mg/kg/injection, schedule: Q01DX009 (ip), vehicle: saline 108 % of control

OC(c1ccccc1)C1CC=CCC1 (stereo not given)
inactive: dose: 12.5 mg/kg/injection, schedule: Q04DX003 (ip), vehicle: saline 97 % of control | dose: 25.0 mg/kg/injection, schedule: Q04DX003 (ip), vehicle: saline with Tween-80 101 % of control and 98 % of control | dose: 25.0 mg/kg/injection, schedule: Q04DX003 (ip), vehicle: saline 105 % of control | dose: 50.0 mg/kg/injection, schedule: Q04DX003 (ip), vehicle: saline with Tween-80 111 % of control and 96 % of control | dose: 50.0 mg/kg/injection, schedule: Q04DX003 (ip), vehicle: saline 109 % of control | dose: 100.0 mg/kg/injection, schedule: Q04DX003 (ip), vehicle: saline with Tween-80 99 % of control | dose: 100.0 mg/kg/injection, schedule: Q04DX003 (ip), vehicle: saline 103 % of control | dose: 200.0 mg/kg/injection, schedule: Q04DX003 (ip), vehicle: saline with Tween-80 99 % of control

COc1ccc(C)cc1NC(=O)SC(C)C
inactive: dose: 60.0 mg/kg/injection, schedule: Q01DX005 (ip), vehicle: Klucel (hydroxypropylcellulose) (HPC) 89 % of control | dose: 120.0 mg/kg/injection, schedule: Q01DX005 (ip), vehicle: Klucel (hydroxypropylcellulose) (HPC) 86 % of control | dose: 240.0 mg/kg/injection, schedule: Q01DX005 (ip), vehicle: Klucel (hydroxypropylcellulose) (HPC) 93 % of control

CSC(=S)n1nc(C)c(N=Nc2cccc(C)c2C)c1C
inactive: dose: 100.0 mg/kg/injection, schedule: Q04DX002 (ip), vehicle: Klucel (hydroxypropylcellulose) (HPC) 96 % of control | dose: 200.0 mg/kg/injection, schedule: Q04DX002 (ip), vehicle: Klucel (hydroxypropylcellulose) (HPC) 96 % of control | dose: 400.0 mg/kg/injection, schedule: Q04DX002 (ip), vehicle: Klucel (hydroxypropylcellulose) (HPC) 100 % of control

CCC(COC(=O)c1ccc(N(CC)CC)cc1)NC1CCCCC1 (stereo not given)
inactive: [1] 111 % of control | [2] 90 % of control

CC(=O)NC1CCOC1=O (stereo not given)
inactive: dose: 12.5 mg/kg/injection, schedule: Q01DX009 (ip), vehicle: water 95 % of control | dose: 25.0 mg/kg/injection, schedule: Q01DX009 (ip), vehicle: water 87 % of control | dose: 50.0 mg/kg/injection, schedule: Q01DX009 (ip), vehicle: water 109 % of control | dose: 100.0 mg/kg/injection, schedule: Q01DX009 (ip), vehicle: water 111 % of control | dose: 200.0 mg/kg/injection, schedule: Q01DX009 (ip), vehicle: water 92 % of control
